Reference: US20170050957A1, “4-AMINO-6-(HETEROCYCLIC)PICOLINATES AND 6-AMINO-2-(HETEROCYCLIC)PYRIMIDINE-4-CARBOXYLATES AND THEIR USE AS HERBICIDES” (Dow AgroSciences LLC, priority 2013, published 2017)
Read-outs that look alike come from different tables or passages of the source.

Experiments:
[1] = tested on: Key Grass and Sedge Weeds as well as Grass Crops; assay: Post-emergent Test II herbicidal activity (Table 16); assay type: in vivo; conditions: post-emergence, 336 h, 14 d; for pest or weed control at 35 g/ha: 35 g ai/ha; for pest or weed control at 70 g/ha: 70 g ai/ha; for pest or weed control at 140 g/ha: 140 g ai/ha
Summary of the method: (§1)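 Plants grown in greenhouse (~15 h photoperiod, 23-29 °C day, 22-28 °C night) to first or second true leaf stage, then sprayed post-emergence at 187 L/ha with a high rate and 1/2×, 1/4×, 1/8× and 1/16× dilutions. Injury scored visually after 14 d, 0-100% versus untreated plants.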

[2] = tested on: Key Broadleaf Weed and Crop Species; assay: Post-emergent Test II herbicidal activity (Table 15); assay type: in vivo; conditions: post-emergence, 336 h, 14 d; for pest or weed control at 35 g/ha: 35 g ai/ha; for pest or weed control at 70 g/ha: 70 g ai/ha; for pest or weed control at 140 g/ha: 140 g ai/ha
Summary of the method: as §1

[3] = Cyperus esculentus, yellow nutsedge (Cyperus esculentus), read-out: Visual Growth Reduction (%) 14 Days After Application, CYPES
[4] = Echinochloa crus-galli, barnyardgrass (Echinochloa crus-galli), read-out: Visual Growth Reduction (%) 14 Days After Application, ECHCG
[5] = Oryza sativa, rice (Oryza sativa), read-out: Visual Growth Reduction (%) 14 Days After Application, ORYSA
[6] = Setaria faberi, giant foxtail (Setaria faberi), read-out: Visual Growth Reduction (%) 14 Days After Application, SETFA
[7] = Triticum aestivum, wheat, spring (Triticum aestivum), read-out: Visual Growth Reduction (%) 14 Days After Application, TRZAS
[8] = Zea mays, maize, corn (Zea mays), read-out: Visual Growth Reduction (%) 14 Days After Application, ZEAMX
[9] = Abutilon theophrasti, velvetleaf (Abutilon theophrasti), read-out: Visual Growth Reduction (%) 14 Days After Application, ABUTH
[10] = Amaranthus retroflexus, redroot pigweed (Amaranthus retroflexus), read-out: Visual Growth Reduction (%) 14 Days After Application, AMARE
[11] = Brassica napus, oilseed rape, canola (Brassica napus), read-out: Visual Growth Reduction (%) 14 Days After Application, BRSNN
[12] = Chenopodium album, lambsquarters (Chenopodium album), read-out: Visual Growth Reduction (%) 14 Days After Application, CHEAL
[13] = Euphorbia heterophylla, wild poinsettia (Euphorbia heterophylla), read-out: Visual Growth Reduction (%) 14 Days After Application, EPHHL
[14] = Helianthus annuus, sunflower (Helianthus annuus), read-out: Visual Growth Reduction (%) 14 Days After Application, HELAN

SMILES: COC(=O)c1nc(-c2ccc3cc[nH]c3c2)c(C)c(N)c1Cl [Compound 1.28]
- pest or weed control at 35 g/ha [1, 3]: 0 to 29%
- pest or weed control at 70 g/ha [1, 3]: 0 to 29%
- pest or weed control at 140 g/ha [1, 3]: 0 to 29%
- pest or weed control at 35 g/ha [1, 4]: 0 to 29%
- pest or weed control at 70 g/ha [1, 4]: 0 to 29%
- pest or weed control at 140 g/ha [1, 4]: 0 to 29%
- pest or weed control at 35 g/ha [1, 5]: 0 to 29%
- pest or weed control at 70 g/ha [1, 5]: 0 to 29%
- pest or weed control at 140 g/ha [1, 5]: 0 to 29%
- pest or weed control at 35 g/ha [1, 6]: 0 to 29%
- pest or weed control at 70 g/ha [1, 6]: 0 to 29%
- pest or weed control at 140 g/ha [1, 6]: 0 to 29%
- pest or weed control at 35 g/ha [1, 7]: 0 to 29%
- pest or weed control at 70 g/ha [1, 7]: 30 to 44%
- pest or weed control at 140 g/ha [1, 7]: 30 to 44%
- pest or weed control at 35 g/ha [1, 8]: 0 to 29%
- pest or weed control at 70 g/ha [1, 8]: 0 to 29%
- pest or weed control at 140 g/ha [1, 8]: 0 to 29%
- pest or weed control at 35 g/ha [2, 9]: 85 to 94%
- pest or weed control at 70 g/ha [2, 9]: 85 to 94%
- pest or weed control at 140 g/ha [2, 9]: 95 to 100%
- pest or weed control at 35 g/ha [2, 10]: 0 to 29%
- pest or weed control at 70 g/ha [2, 10]: 0 to 29%
- pest or weed control at 140 g/ha [2, 10]: 60 to 74%
- pest or weed control at 35 g/ha [2, 11]: 75 to 84%
- pest or weed control at 70 g/ha [2, 11]: 85 to 94%
- pest or weed control at 140 g/ha [2, 11]: 85 to 94%
- pest or weed control at 35 g/ha [2, 12]: 45 to 59%
- pest or weed control at 70 g/ha [2, 12]: 60 to 74%
- pest or weed control at 140 g/ha [2, 12]: 60 to 74%
- pest or weed control at 35 g/ha [2, 13]: 0 to 29%
- pest or weed control at 70 g/ha [2, 13]: 0 to 29%
- pest or weed control at 140 g/ha [2, 13]: 0 to 29%
- pest or weed control at 35 g/ha [2, 14]: 95 to 100%
- pest or weed control at 70 g/ha [2, 14]: 95 to 100%
- pest or weed control at 140 g/ha [2, 14]: 95 to 100%
- melting point: 231 to 234 °C

SMILES: COC(=O)c1nc(-c2cc3[nH]ccc3cc2F)cc(N)c1Cl [Compound 1.25]
- pest or weed control at 35 g/ha [1, 3]: 0 to 29%
- pest or weed control at 70 g/ha [1, 3]: 0 to 29%
- pest or weed control at 140 g/ha [1, 3]: 0 to 29%
- pest or weed control at 35 g/ha [1, 4]: 0 to 29%
- pest or weed control at 70 g/ha [1, 4]: 0 to 29%
- pest or weed control at 140 g/ha [1, 4]: 0 to 29%
- pest or weed control at 35 g/ha [1, 5]: 0 to 29%
- pest or weed control at 70 g/ha [1, 5]: 0 to 29%
- pest or weed control at 140 g/ha [1, 5]: 0 to 29%
- pest or weed control at 35 g/ha [1, 6]: 0 to 29%
- pest or weed control at 70 g/ha [1, 6]: 0 to 29%
- pest or weed control at 140 g/ha [1, 6]: 0 to 29%
- pest or weed control at 35 g/ha [1, 7]: 0 to 29%
- pest or weed control at 70 g/ha [1, 7]: 0 to 29%
- pest or weed control at 140 g/ha [1, 7]: 0 to 29%
- pest or weed control at 35 g/ha [1, 8]: 0 to 29%
- pest or weed control at 70 g/ha [1, 8]: 0 to 29%
- pest or weed control at 140 g/ha [1, 8]: 0 to 29%
- pest or weed control at 35 g/ha [2, 9]: 0 to 29%
- pest or weed control at 70 g/ha [2, 9]: 0 to 29%
- pest or weed control at 140 g/ha [2, 9]: 30 to 44%
- pest or weed control at 35 g/ha [2, 10]: 75 to 84%
- pest or weed control at 70 g/ha [2, 10]: 85 to 94%
- pest or weed control at 140 g/ha [2, 10]: 95 to 100%
- pest or weed control at 35 g/ha [2, 11]: 60 to 74%
- pest or weed control at 70 g/ha [2, 11]: 75 to 84%
- pest or weed control at 140 g/ha [2, 11]: 85 to 94%
- pest or weed control at 35 g/ha [2, 12]: 0 to 29%
- pest or weed control at 70 g/ha [2, 12]: 60 to 74%
- pest or weed control at 140 g/ha [2, 12]: 60 to 74%
- pest or weed control at 35 g/ha [2, 13]: 0 to 29%
- pest or weed control at 70 g/ha [2, 13]: 0 to 29%
- pest or weed control at 140 g/ha [2, 13]: 30 to 44%
- pest or weed control at 35 g/ha [2, 14]: 0 to 29%
- pest or weed control at 70 g/ha [2, 14]: 0 to 29%
- pest or weed control at 140 g/ha [2, 14]: 0 to 29%

SMILES: Nc1cc(-c2ccc3cc[nH]c3c2F)nc(C(=O)O)c1Cl [Compound 1.24]
- pest or weed control at 35 g/ha [1, 3]: 0 to 29%
- pest or weed control at 70 g/ha [1, 3]: 0 to 29%
- pest or weed control at 140 g/ha [1, 3]: 0 to 29%
- pest or weed control at 35 g/ha [1, 4]: 0 to 29%
- pest or weed control at 70 g/ha [1, 4]: 0 to 29%
- pest or weed control at 140 g/ha [1, 4]: 0 to 29%
- pest or weed control at 35 g/ha [1, 5]: 0 to 29%
- pest or weed control at 70 g/ha [1, 5]: 0 to 29%
- pest or weed control at 140 g/ha [1, 5]: 0 to 29%
- pest or weed control at 35 g/ha [1, 6]: 0 to 29%
- pest or weed control at 70 g/ha [1, 6]: 45 to 59%
- pest or weed control at 140 g/ha [1, 6]: 60 to 74%
- pest or weed control at 35 g/ha [1, 7]: 0 to 29%
- pest or weed control at 70 g/ha [1, 7]: 30 to 44%
- pest or weed control at 140 g/ha [1, 7]: 45 to 59%
- pest or weed control at 35 g/ha [1, 8]: 0 to 29%
- pest or weed control at 70 g/ha [1, 8]: 0 to 29%
- pest or weed control at 140 g/ha [1, 8]: 0 to 29%
- pest or weed control at 35 g/ha [2, 9]: 85 to 94%
- pest or weed control at 70 g/ha [2, 9]: 95 to 100%
- pest or weed control at 140 g/ha [2, 9]: 95 to 100%
- pest or weed control at 35 g/ha [2, 10]: 95 to 100%
- pest or weed control at 70 g/ha [2, 10]: 95 to 100%
- pest or weed control at 140 g/ha [2, 10]: 95 to 100%
- pest or weed control at 35 g/ha [2, 11]: 85 to 94%
- pest or weed control at 70 g/ha [2, 11]: 45 to 59%
- pest or weed control at 140 g/ha [2, 11]: 95 to 100%
- pest or weed control at 35 g/ha [2, 12]: 85 to 94%
- pest or weed control at 70 g/ha [2, 12]: 95 to 100%
- pest or weed control at 140 g/ha [2, 12]: 95 to 100%
- pest or weed control at 35 g/ha [2, 13]: 95 to 100%
- pest or weed control at 70 g/ha [2, 13]: 95 to 100%
- pest or weed control at 140 g/ha [2, 13]: 95 to 100%
- pest or weed control at 35 g/ha [2, 14]: 60 to 74%
- pest or weed control at 70 g/ha [2, 14]: 75 to 84%
- pest or weed control at 140 g/ha [2, 14]: 85 to 94%
